{"source": "patent US9963457B2", "about": "“Crystal of 5-((2-(6-amino)-9H-purin-9-yl)ethyl)amino)pentan-1-o1” (FOREVER CHEER INTERNATIONAL LIMITED, priority 2016, dated 2018)", "key": {"[1]": {"system": "mice treated with yeast polysaccharide", "experiment": "Visceral pain behavior test in chronic visceral pain model", "assay_type": "in vivo", "settings": "3 mg/kg IP", "procedure": "Chronic Visceral Pain Model\n(§1) The visceral pain is induced by injecting yeast polysaccharide into the mice colony, and the yeast polysaccharide is derived from Saccharomyces cerevisiae (Sigma), wherein one kind of dextran is resident on the cell wall of the yeast and is identified as a protein-carbohydrate complex. Specifically, the mice were anesthetized after inhaling 1-3% isoflurane, and then a […] suspension of yeast polysaccharide (formulated as a 30 mg/ml solution in physiological saline) was injected into the colon of the mice by using a 24 mm long plastic feed needle within 2 minutes. The control group was injected with 0.1 ml physiological saline. The yeast polysaccharide or physiological saline was injected daily for 3 days. A visceral pain behavior test was carried out according to the Laird procedure. The number of times the mice licking the abdomen within 10 minutes was recorded, excluding other grooming behaviors, stretching of whole body, pressing the abdomen against the floor, and an 1-2-second arched posture. On day 1, 7 and 14 after the injection into the colon, an open field test was carried out from 9 am to 12 pm, and the entire test was a double-blind test. Prior to the behavioral test, the mice were acclimated for 30 minutes in an observation room. The mice were placed at the middle of a new open zone (43.2×43.2×30.5 cm^3) with micro light (<50 lux) and a fan. The movement distance, vertical count, movement count, stereotypic behavior count, and jumping count of animals were recorded within 30 minutes by means of an activity monitoring system equipped with multiple pairs of packaged light beam sets.\n(§2) The physiological saline, non-crystalline NB001 (3 mg/kg), the crystal of the present invention (3 mg/kg), and Gabapentin (30 mg/kg) as a positive control were intraperitoneally injected (IP) into the mice treated with yeast polysaccharide respectively. The behaviors of Mice were observed 28 days after the yeast polysaccharide treatment."}, "[2]": {"system": "mice treated with yeast polysaccharide", "experiment": "Bright/dark box test, visceral pain", "assay_type": "in vivo", "settings": "3 mg/kg IP", "procedure": "as §1\nBright/dark box test: The test procedure was carried out by using an improved method in accordance with the prior art. The device was composed of a rectangular organic glass box (44×8.5×25 cm^3), which is separated into bright and dark compartments with the equal size by using a door. A 60 watt lamp (400 lux) in turn-on state was placed at 30 cm above the box to irradiate the bright compartment. Each animal was first placed in the dark compartment for 20 seconds, and then the door leading to the bright compartment was open. The time each animal stayed in the dark compartment and the time each animal enters the bright compartment within 10 minutes were recorded.\nas §2, with “In order to confirm the effect of the crystal of the present invention on inhibiting anxiety, mice were subjected to a bright/dark box test, and the results were as shown in Table 8. The physiological” for “The physiological”"}, "[3]": {"system": "mice after neuropathic pain", "experiment": "Bright/dark box test, neuropathic pain", "assay_type": "in vivo", "settings": "3 mg/kg IP, 3 mg/kg"}, "[4]": {"system": "mice after neuropathic pain", "experiment": "Elevated plus maze test (EPM), neuropathic pain", "assay_type": "in vivo", "settings": "3 mg/kg IP, 3 mg/kg", "procedure": "An anxious animal model of the prior art—the elevated plus maze test (EPM) was adopted. The mice were acclimated for 30 minutes in the room prior to the behavior observation. The EPM was composed of two open arms (250 lux) and two closed arms (350 lux) arranged opposite to each other. For each test, an individual animal was placed at the center of the test position and allowed to move freely. The test is carried out for 5 minutes. The number of entering the test position for each arm and the time spent therefore were recorded.\nThe other two sets of tests were conducted to test the effect of the crystal of the present invention on inhibiting anxiety caused by chronic pain and neuropathic pain.\nas §2, with “The EPM test tested the anxiety behavior of mice after the test treatment. The physiological” for “The physiological”"}, "[5]": {"system": "bone cancer pain model in rat (Walker 256 cells)", "experiment": "Paw withdrawal thermal latency (PWL) in bone cancer pain model", "assay_type": "in vivo, SD rats", "settings": "20 mg/kg, i.g.", "procedure": "1. Animals 50 SD rats (180-220 g), placed under a quiet and warm (22° C.) environment without strong light irradiation, having free access to feed and water.\n2. Cell Culture: SD Rat homologous cancer cell strains Walker 256 preserved by the Laboratory Animal Center, Forth Military Medical\nUniversity, or a commercially available product can be used. RPMI 1640 culture medium (Gibco Inc. of US, containing 100 U/ml each of 10% fetal bovine serum, penicillin, and streptomycin) was used, and the tumor cells were incubated as suspension cells in a 37° C. incubator under 5% CO2, with the medium replaced every other day, and 2 days for 1 passage. The cells were harvested at the 3rd passage, with a cell concentration of 2×10^5/10 μl.\n3. Establishment of bone cancer pain model in rat: the rats were operated at the left knee with a small incision after anesthesia (40 mg/kg of pentobarbital sodium) according to sterile surgical operation procedures, the muscle was stripped off gently and the patellar ligament is cut open to expose the distal femur, with 1 mm syringe needle inserted from the intercondylar fossa vertically into the marrow cavity, with an inserting distance no more than 5 mm to prevent punching. Then a 20 μl micro-injector was inserted into the marrow cavity to slowly inject 10 μl of a suspension containing the Walker 256 cells (2×10^5 cancer cells per 10 μl). The injector was stayed there for a few minutes after the injection, and then the needle pinhole was immediately sealed with sterile bone wax. The tumor cells leaking out of the marrow cavity were killed with 75% ethyl alcohol, and then the rat was sutured under sterile conditions layer by layer. The same operation was performed in the sham operation group, except that only the same volume of sterile saline was injected into the marrow cavity slowly.\n6. Drug intervention: On day 18 after the surgical operation, the SD rats of the operation group were randomized into 6 groups, i.e., respectively the model group; non-crystalline NB001 group (20 mg/kg, i.g.); the group of the crystal of the present invention (20 mg/kg, i.g.); morphine (2 mg/kg, i.p.); and gabapentin (100 mg/kg, i.g.). The new crystal form and non-crystalline form of the AC1 inhibitor NB001 were both formulated with sterile saline, and morphine and gabapentin were used as positive control drugs. All drugs were administered twice daily for 3 days, and the pain threshold was measured within 2 hours after the last administration on day 3\n7. Assessment of rat pain behavior:\nPaw withdrawal thermal latency (PWL): the PWL was measured by using a PL-200 thermal pain stimulator (8V, 50 W, with a strength of 100%). The time period since the time irradiating the middle portion of the planta pedis at the operation side of the rat with light till the time the rat lifted its leg to keep out of the light was TWL. To prevent tissue injury, a cut-off time of 80 s was set, each rat was measured for 3 times with an interval of 5 min, and the results were averaged."}}}
{"smiles": "Nc1ncnc2c1ncn2CCNCCCCCO", "note": "[New NB001, 5-(((2-(6-amino)-9H-purin-9-yl)ethyl)amino)pentan-1-ol]", "values": [{"measurement": "Number of visceral pain scores", "setting": "[1]; 28 days after yeast polysaccharide treatment", "result": "11.0 ± 0.7"}, {"measurement": "therapeutic effect on chronic pain as compared with the positive control group", "setting": "[1]; Table 6, listed as the crystal of the present invention", "result": "extremely significant"}, {"measurement": "therapeutic effect in bright/dark box test as compared with the positive control group", "setting": "[2]; Table 8, listed as the crystal of the present invention", "result": "extremely significant"}, {"measurement": "% time in the open arm", "setting": "[2]; Bright/dark box test, Visceral pain, 3 mg/kg", "result": "10.3 ± 1.2 (8) %"}, {"measurement": "% time in the open arm", "setting": "[3]", "result": "18.5 ± 1.4 (8) %"}, {"measurement": "% time in the open arm", "setting": "[4]", "result": "18.5 ± 1.4 (8) %"}, {"measurement": "analgesic effect (PWL) as compared with the model group", "setting": "[5]; twice daily for 3 days, PWL at 2 h after last administration (21d)", "result": "better analgesic effect"}, {"measurement": "significance of the analgesic effect (PWL), FIG. 7", "setting": "[5]; P<0.01", "result": "extremely significant"}]}
